Experimental data reported in US5461057A, “Hydro-ethano-indeno-pyridines” (priority 1994, dated 1995).
Where two headings read alike, the source gives them in different places.

Tests used:
[1] = system: histamine-induced dyspnea; assay: Bronchodilator (in vivo) Guinea Pig Dyspnea; settings: 100 mg/kg, oral, one hour before histamine challenge
In short: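 Fasted, unanesthetized guinea pigs (250-350 g) received the test drug orally one hour before exposure to an aerosolized 0.1% histamine solution. Onset of dyspnea was recorded, and data were expressed as number tested over number survived.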

[2] = system: LOX human melanoma cell adhesion to human fibronectin; assay: LOX melanoma cell adhesion to fibronectin; format: cell-based; settings: Homo sapiens, LOX; for inhibition at 10 µM: read-out: % Inhibition at 10 μM; for inhibition at 50 µM: read-out: % Inhibition at 50 μM
In short: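 Compound added to fibronectin-coated (140 ng/well), BSA-blocked wells before LOX cells (1×10^5/well, detached with urea/EDTA). Cells adhered 1 h at 37 °C, then washed. Adherent cells quantified by calcein AM fluorescence (485/530 nm); IC50 for adhesion inhibition.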

[3] = Calcein cytotoxicity assay; format: cell-based; settings: human, lox melanoma cells, calcein AM assay; for CC50 at 2 h: read-out: 2 Hr Tox LD50
[4] = system: LOX human melanoma cell adhesion to polylysine; assay: LOX melanoma cell adhesion to polylysine; format: cell-based; settings: read-out: Poly Lys IC50
[5] = system: LOX human melanoma cell adhesion to murine laminin; assay: LOX cell adhesion to laminin; format: cell-based; settings: read-out: Laminin IC50
Experimental: (§1) Adhesion assays were run essentially as described previously (Pai et al., J. Biomed. Res. 2: 53, 1992). 96-well plates were coated with human fibronectin (140 ng/well), human vitronectin (75 ng/well), human collagen I (100 ng/well), human collagen IV (100 ng/well), human fibrinogen (1 μg/well), murine laminin (600 ng/well), or polylysine, and incubated overnight in a humidified 37° C. incubator. Excess fibronectin or other substrate was then removed and 0.2 ml of 2 mg/ml bovine serum albumin (BSA)in Dulbecco's phosphate-buffered saline (DPBS) was added to each well, incubated for 2 hours at 37° C., and removed. LOX human melanoma cells, M27 murine lung carcinoma cells or B16F10 mouse melanoma cells were detached from tissue culture flasks with RPMI medium containing 0.2M urea and 10 mM EDTA, and 0.18 ml of cells were added to each well to a final cell concentration of 1×10^5 cells/well. For inhibition studies 20 μl of 10× compound was added to the wells prior to cell addition. Cells were allowed to adhere for 1 hour at 37° C. The wells were then gently washed twice with 0.2 ml DPBS. The fluorescent dye calcein AM (Molecular Probes, Eugene Oreg.) in DPBS (0.1 ml of 1 μM) was added to each well, and the plates were incubated for 1 hour at room temperature. Adherent cells were quantitated by reading the fluorescence on a Cytofluor 2300 fluorescent plate reader (Millipore) at 485 nm excitation and 530 nm emission.

[6] = system: LOX human melanoma cell adhesion to human collagen I; assay: LOX cell adhesion to collagen I; format: cell-based; settings: read-out: Collagen I IC50
Experimental: as §1

[7] = system: LOX human melanoma cell adhesion to human collagen IV; assay: LOX cell adhesion to collagen IV; format: cell-based; settings: read-out: Collagen IV IC50
Experimental: as §1

[8] = system: LOX human melanoma cell adhesion to human vitronectin; assay: LOX cell adhesion to vitronectin; format: cell-based; settings: read-out: Vitronectin IC50
Experimental: as §1

[9] = system: LOX human melanoma cell adhesion to human fibrinogen; assay: LOX cell adhesion to fibrinogen; format: cell-based; settings: read-out: Fibrinogen IC50
Experimental: as §1

[10] = system: M27 murine lung carcinoma cell adhesion to fibronectin; assay: M27 lung carcinoma cell adhesion to fibronectin; format: cell-based; settings: Mus musculus; read-out: M27 FN IC50
Experimental: as §1

[11] = system: B16-F10 mouse melanoma cell adhesion to fibronectin; assay: B16-F10 melanoma cell adhesion to fibronectin; format: cell-based; settings: read-out: B16 FN IC50
Experimental: as §1

LOX human melanoma cells = assay: Tumor cell invasion through collagen/fibronectin coated membranes; format: cell-based
Experimental: […] Cell Invasion Through Collagen/Fibronectin Coated Membranes:
Nucleopore polycarbonate membranes (8 μm pore size) were coated with 0.05 ml of type I collagen and allowed to dry overnight. 210 μl of serum free DMEM with BSA was added to each Boyden chamber. Membranes were placed in chambers and upper chambers were screwed on. Human fibronectin (50 μl of 0.1 mg/ml solution in DMEM with BSA) was added to the top chamber and allowed to sit on membranes for 1 hour at room temperature. Compounds (50 μl) at 10× concentration in DMEM with BSA were added to the chambers. LOX melanoma cells were detached from flasks with trypsin/EDTA solution and resuspended in RPMI with 10% fetal bovine serum. Cells were centrifuged, washed 2× with DMEM with BSA, and resuspended in 10 ml of DMEM with BSA. LOX cells (0.45 ml of 7.8×10^5 cells per ml) were added to each chamber and chambers were incubated for 5 hours at 37° C. The medium was removed from the upper chamber by aspiration, the top chamber was unscrewed, and the membrane was removed. The membrane was inverted, pinned to a dissecting tray, and fixed with Diff Quik fixative for 3 minutes The fixative was then removed and Diff Quik Stain was added for 2 minutes. The stain was decanted and membranes were rinsed with distilled water. Membranes were inverted onto glass slides, and non-invading cells were wiped away with a cotton swab. Permount was added to the slide and the membrane was covered with a cover slip. The number of cells that invaded was quantitated on a Nikon TMS microscope with C-2 Image Analyzer software (Olympus Corp.).
The greater potency of the compounds in this assay (IC50 for compound B<400 nM) may result from the longer duration of this assay (5 hours) relative to the fibronectin adhesion assay (1 hour).

MTT cytotoxicity assay = format: cell-based; settings: human, lox melanoma cells, read-out: MTT 1 Hr LD50
Experimental: LOX human melanoma cells, in RPMI medium with 2 mg/ml BSA and 25 mM HEPES, pH 7.4, were seeded at 4×10^4 cells/well in 96-well microtiter plates and grown overnight in a humidified 37° C. incubator. On the following day, the medium was aspirated and wells were washed once with 0.1 ml of DPBS. Compounds (0.1 ml) in DPBS were added to wells in quadruplicate at appropriate concentrations. The cells were then incubated with test compound for 1 hour at 37° C. Wells were aspirated and washed 2× with 0.1 ml DPBS. MTT [3-(4,5-Dimethylthiazol-2-yl)-2,5-diphenyltetrazolium bromide] (0.1 ml of 1 mg/ml solution in PBS from Sigma Chemical Co.) was added to each well and incubated for 2 hour at 37° C. MTT was aspirated and 0.1 ml of 50% N,N-dimethylformamide with 20% sodium dodecyl sulfate was added to each well. Plates were shaken for 10 minutes on a Titer-Plate shaker (Labline) at room temperature. Optical density was read at 570 nm with a plate-reading spectrophotometer (Dynatech MR5000).

ELAM-1 = ELAM-1 (Homo sapiens, UniProt P16581); assay: cell-based
Sequence of ELAM-1 (P16581 22-610): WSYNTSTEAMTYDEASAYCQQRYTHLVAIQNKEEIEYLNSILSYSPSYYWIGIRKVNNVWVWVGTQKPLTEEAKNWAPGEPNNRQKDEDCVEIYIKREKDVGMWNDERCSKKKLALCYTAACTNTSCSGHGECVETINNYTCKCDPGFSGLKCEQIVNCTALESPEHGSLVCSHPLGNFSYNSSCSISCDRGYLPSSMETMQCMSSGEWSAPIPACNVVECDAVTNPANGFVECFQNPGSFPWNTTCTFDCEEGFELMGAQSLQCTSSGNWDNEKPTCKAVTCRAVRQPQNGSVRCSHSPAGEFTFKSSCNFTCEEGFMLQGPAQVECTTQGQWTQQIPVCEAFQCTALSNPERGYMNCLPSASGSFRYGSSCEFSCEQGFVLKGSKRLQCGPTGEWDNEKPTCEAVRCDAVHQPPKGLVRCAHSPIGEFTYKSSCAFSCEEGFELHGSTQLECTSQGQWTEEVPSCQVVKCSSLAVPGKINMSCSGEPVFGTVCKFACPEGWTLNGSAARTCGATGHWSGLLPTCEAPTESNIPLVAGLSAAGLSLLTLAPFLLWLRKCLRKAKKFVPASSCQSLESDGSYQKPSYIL
Experimental: Cell adhesion to ELAM-1 was measured essentially as described previously (Pal et al., J. Biomed. Res. 2: 53, 1992). Undifferentiated HL-60 leukemia cells were prelabelled for 30 minutes with 1 μM calcein AM in DPBS without calcium or magnesium, and the cells were washed twice with the same medium before addition to 96-well plates containing monolayers of mouse L cells (5×10^4 cells/well) transfected with cDNA for the adhesion molecule ELAM-1. Adhesion was allowed to proceed for 30 minutes at room temperature before washing and quantitation of the remaining fluorescent HL-60 cells as described above.
ELAM-1 (E-selectin) is a member of the selectin class of adhesion molecules.

ICAM-1 = molecular target: T1, ICAM-1 (Homo sapiens, UniProt P05362); assay: HL-60 cell adhesion to recombinant soluble ICAM-1; format: cell-based; settings: HL-60 cells
T1 construct: recombinant soluble ICAM-1 (2 μg/well)
T1 sequence (P05362 28-480 limits assumed): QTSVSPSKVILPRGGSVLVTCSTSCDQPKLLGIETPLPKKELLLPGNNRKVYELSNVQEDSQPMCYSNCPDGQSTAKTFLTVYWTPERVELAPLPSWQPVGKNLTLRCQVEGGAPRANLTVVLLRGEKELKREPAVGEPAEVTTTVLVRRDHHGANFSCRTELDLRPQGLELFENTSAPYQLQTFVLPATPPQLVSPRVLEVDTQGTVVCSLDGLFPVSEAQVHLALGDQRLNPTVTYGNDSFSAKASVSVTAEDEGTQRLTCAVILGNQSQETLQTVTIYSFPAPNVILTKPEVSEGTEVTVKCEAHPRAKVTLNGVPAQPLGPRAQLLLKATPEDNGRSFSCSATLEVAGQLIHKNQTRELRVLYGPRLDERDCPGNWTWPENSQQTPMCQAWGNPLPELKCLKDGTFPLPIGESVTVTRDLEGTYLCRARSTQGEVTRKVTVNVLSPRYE
Experimental: For measurement of cell adhesion to ICAM-1, HL-60 human leukemia cells were induced to differentiate in the presence of DMSO for 6 days. Adhesion of DMSO-differentiated HL-60 cells to recombinant soluble ICAM-1 (2 μg/well) was measured as described above for LOX cell adhesion, except that the adhesion was allowed to proceed for 30 minutes, rather than 1 hour, at 37° C.
ICAM-1 is a cell surface adhesion molecule that participates in cell-cell adhesion interactions, rather than cell-matrix adhesion interactions.

CN1C2CCC1C1C(=C(c3ccccc3C(F)(F)F)c3ccccc31)C2 (centres unmarked) [Compound S]
DYSP survivors [1]: 0/3 | inhibition at 10 µM ([2]; 10 μM): -4.4% | inhibition at 50 µM ([2]; 50 μM): 90.2% | IC50 ([2]; Table 4, 1 hour adhesion, read-out: LOX FN IC50): 17.7 µM | IC50 ([2]; Table 5, read-out: Fibronectin IC50): 17.7 µM | CC50 at 2 h [3]: > 250 µM | IC50 [4]: > 250 µM | IC50 [5]: 7.7 µM | IC50 [6]: 11.6 µM | IC50 [7]: 19.2 µM | IC50 [8]: 20.2 µM | IC50 [9]: 15.7 µM

CSc1ccc(C2=C3CC4CCC(C3c3ccccc32)N4C)cc1 (centres unmarked) [F, 1SR:3RS:9b-1,3 Ethano-2-methy-5-(p-methylmercaptophenyl)-1,3,4,9b-tetrahydro-2H-indeno-(2h-indeno) [1,2-c]pyridine]
responders at 100 mg/kg ([1]; Cavia porcellus, 1 h, read-out: DYSP survivors (converted)): 0% | IC50 ([2]; 1 h, read-out: LOX FN IC50): 5.1 µM | inhibition at 10 µM [2]: 49.4% | inhibition at 50 µM [2]: 102% | IC50 [10]: 8.7 µM | IC50 [11]: 24.2 µM | IC50 (LOX human melanoma cells; Homo sapiens, 5 hours, read-out: Invasion IC50): 0.52 µM | inhibition of in vitro tumor cell invasion (LOX human melanoma cells; fibronectin/collagen matrix): inhibit in vitro tumor cell invasion through a fibronectin/collagen matrix | CC50 at 2 h [3]: 43.3 µM | CC50 at 6 h ([3]; 6 hours, read-out: 6 Hr Tox LD50): 19.9 µM | CC50 at 1 h (MTT cytotoxicity assay): 51.7 µM | IC50 [4]: 24.4 µM | IC50 (ELAM-1): > 50 µM | IC50 (ICAM-1): 16.8 µM
